From PubChem BioAssay (NCI) come the findings set out here.

Values joined by “and” are separate entries in the source; they are usually repeats but may differ in a detail not shown here. Identical values can stand only once.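 Tested at 5 concentrations; 48 h exposure; 96-well plates; endpoints linearly interpolated, else capped at highest concentration. At the GI50, growth is halved. TGI: total growth inhibition.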

What all share (assay): inhibition of tumour cell growth, NCI panel, 48 h
For assay [1], the system named is K-562 leukemia.
In assay [2] the test system is ACHN renal.
Assay [3] concerns SK-MEL-2 melanoma.
Assay [4] has as its system RPMI-8226 leukemia.
The test system of assay [5] is SK-MEL-5 melanoma.
The test system of assay [6] is 786-0 renal.
Assay [7] has as its system EKVX NSCLC.
Assay [8] has as its system RXF 393 renal.
For assay [9], the system named is HCC-2998 colon.
Assay [10] relates to HS 578T breast.

In the case of `CCP(C)(C)=O`, the TGI in assay [1], in [2], in assay [3], in assay [4], in assay [5] and in assay [6] was over 100 µM throughout. The TGI in assay [7], in [8] and in assay [9] was over 100 µM in each case.

As for `O=C1C(CO)=C[C@@H](O)[C@H]2O[C@@H]12`, the TGI in assay [1], in assay [2], in [10], in [3], in [4] and in [5] was over 100 µM each time. The TGI in [6] and in assay [7] was over 100 µM in each case.

Turning to `CN(C)CCC(/C=C/c1ccccc1)=N\Nc1ccc(Cl)cc1`, the TGI stood at 5.02 µM in [1]; 5.15 µM in assay [2]; 4.4 µM in [3]; 4.69 µM in assay [4]; 31.5 µM in assay [5]; 6.26 µM in assay [6]. For the same compound, the values for the TGI in assay [7], in [8] and in assay [9] were 11.4 µM, 20.9 µM and 3.53 µM, respectively.

On to `Cc1cc(Cl)cc2c1NC(=O)C2(O)CC(=O)c1ccc(F)cc1` (centres undefined), for which the TGI in assay [2] was over 100 µM; in [3], over 100 µM; in assay [4], 65.3 µM; in assay [6] it was over 100 µM; in assay [7], over 100 µM; in [8], 41.5 µM. Besides, the TGI in assay [9] is over 100 µM.

As to `Cc1cccc(Cl)c1NC(=O)c1cccc([N+](=O)[O-])c1O`, the TGI in [1] is over 100 µM; in assay [2], over 100 µM; in assay [4] it was 64.6 µM; in assay [6], over 100 µM; in assay [7] it was over 100 µM; in [8], 50.7 µM. For the same compound, the TGI in [9] is over 100 µM.

Consider `COc1cc(/C=C2\NC(=S)C3Cc4c(OC)c(C)c(OC)c(OC)c4C2N3C)c(OC)c(C)c1OC` (centres undefined), for which the TGI is over 100 µM in [1]; over 100 µM in assay [2]; over 100 µM in assay [3]; over 100 µM in assay [4]; 73.1 µM in assay [5]; over 100 µM in [6]. Besides, the TGI in assay [7] was over 100 µM; in assay [8], 67.6 µM; in assay [9], over 100 µM.

Regarding `CC1NCCc2c1[nH]c1cc(O)ccc21` (centres undefined), the TGI in [1], in assay [2], in assay [3], in assay [4], in assay [5] and in assay [6] was over 100 µM throughout. Also, the TGI in [7], in assay [8] and in assay [9] was over 100 µM in each case.

As for `C/C=C/C=C/CCCCCCCCCCCCC[C@]1(OC)C=CC(CC(=O)OC)OO1` (some centres undefined), the TGI in assay [1] worked out at 52.1 µM; in [2] it was 31.4 µM; in assay [3], 69.5 µM; in [4] it was 49.2 µM; in assay [5] it was 31.1 µM; in [6], 33.4 µM. The TGI came to 57.6 µM in assay [7], 31 µM in assay [8] and 47.9 µM in assay [9]. Further, the GI50 was 16.6 µM in [2]; 17.1 µM in assay [6]; 26.3 µM in assay [7]; 16.5 µM in assay [8]; 24.3 µM in [9].

As to `NC1=NCC(c2ccccn2)C1c1ccc(F)cc1` (centres undefined), the TGI in assay [1], in assay [2], in [3], in assay [4], in [5] and in assay [6] was over 100 µM each time. The TGI in assay [7], in assay [8] and in [9] was over 100 µM in each case.

For `C=C(CN(C)Cc1ccccc1)c1ccc(C(=O)Nc2ccccc2N)cc1`, the GI50 in [1] was 3.22 µM; in assay [10] it was 3.66 µM; in [3], 8.73 µM; in assay [4], 1.46 µM; in assay [5], 6.72 µM; in assay [6], 5.21 µM. Further, in assay [7], the GI50 was 8.17 µM. Further, the TGI is over 50 µM in assay [1]; 33.6 µM in assay [10]; 40.5 µM in assay [3]; over 50 µM in assay [4]; 14.6 µM in assay [5]; 27.3 µM in assay [6]. The compound also came in with a TGI in [7] of 37.9 µM.

Consider `CC1(C)Cc2nnsc2C2=C1C(=O)CCS2`, for which the TGI in assay [1], in assay [2], in [3], in [4], in assay [5] and in [6] was over 100 µM each time. The TGI in [7], in assay [8] and in assay [9] was over 100 µM each time.

For `OCCSCC/C(=N\N=C(/CCSCCO)c1ccccc1)c1ccccc1`, the TGI in assay [1], in assay [2], in assay [3], in [4], in assay [5] and in [6] was over 100 µM in each case. In addition, the values for the TGI in assay [7], in [8] and in assay [9] were over 100 µM, 99.7 µM and over 100 µM, respectively.

Consider `CC(=O)OCC1OC(n2c(=S)n(-c3ccccc3)c(=O)c3cc(Br)ccc32)C(OC(C)=O)C(OC(C)=O)C1OC(C)=O` (centres undefined), for which the TGI in assay [1], in assay [2], in assay [3], in [4], in [5] and in assay [6] was over 100 µM throughout. Further, the TGI in assay [7], in [8] and in [9] was over 100 µM in each case. Besides, the GI50 is 47 µM and > 100 µM in [3]; 33.7 µM and > 100 µM in [8].
